Measurements reported in patent US7601686B2, “Hepatitis C virus inhibitors” (Bristol-Myers Squibb Company, priority 2005, dated 2009).
Where two headings read alike, the source gives them in different places.

Legend:
[1] = molecular target: T1, HCV NS3/4A protease complex, BMS strain (UniProt P27958, species not given/STRAIN_BMS); test: FRET peptide assay to monitor HCV NS3/4A proteolytic activity (BMS strain); type: biochemical, Hepatitis C virus (genotype 1a); conditions: NS3/4A BMS strain, enzyme assay
T1 construct: DNA encoding the recombinant HCV NS3/4A protease complex (amino acids 1027 to 1711) for these strains [H77 and J4L6S]; fused on or other part: For the H77 and J4L6S constructs, a three-lysine solubilising tail at the NS4A C-terminus and a Ni-NTA-purifiable tag from pET21b
Outline: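 Recombinant NS3/4A complexes (aa 1027–1711) with C-terminal three-lysine tail, C1711G and C1454S, expressed in E. coli BL21(DE3) (0.5 mM IPTG, 22 h, 20°C) for H77 (1a) and J4L6S (1b); BMS strain is genotype 1a patient isolate. Purified by Ni-NTA and Superdex-S200; proteolysis monitored by FRET peptide cleavage.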

[2] = molecular target: T2, HCV NS3/4A protease complex, H77 strain (Hepatitis C virus genotype 1a, UniProt P27958, C1454S/C1711G); test: FRET peptide assay to monitor HCV NS3/4A proteolytic activity (H77 strain); type: biochemical
T2 construct: recombinant HCV NS3/4A protease complex (amino acids 1027 to 1711) for these strains; inferred from pET21b vector and Ni-NTA purification; made in house; host or cells: Escherichia coli BL21 (DE3), pET21b
Description: Generation of Recombinant HCV NS3/4A Protease Complex
HCV NS3 protease complexes, derived from the BMS strain, H77 strain or J4L6S strain, were generated, as described below. These purified recombinant proteins were generated for use in a homogeneous assay (see below) to provide an indication of how effective compounds of the present disclosure would be in inhibiting HCV NS3 proteolytic activity.
Serum from an HCV-infected patient was obtained from Dr. T. Wright, San Francisco Hospital. An engineered full-length cDNA (compliment deoxyribonucleic acid) template of the HCV genome (BMS strain) was constructed from DNA fragments obtained by reverse transcription-PCR (RT-PCR) of serum RNA (ribonucleic acid) and using primers selected on the basis of homology between other genotype 1a strains. From the determination of the entire genome sequence, a genotype 1a was assigned to the HCV isolate according to the classification of Simmonds et al. (See P Simmonds, K A Rose, S Graham, S W Chan, F McOmish, B C Dow, E A Follett, P L Yap and H Marsden, J. Clin. Microbiol., 31(6), 1493-1503 (1993)). […]

[3] = tested on: human pancreatic chymotrypsin; test: Specificity assay, chymotrypsin; type: biochemical; conditions: 2 h enzyme-inhibitor pre-incubation; read-out: Chymotrypsin activity in the specificity assays
Procedure: The specificities of compounds of the present disclosure were determined against a variety of serine proteases: human neutrophil elastase (HNE), porcine pancreatic elastase (PPE) and human pancreatic chymotrypsin and one cysteine protease: human liver cathepsin B. In all cases a 96-well plate format protocol using colorimetric p-nitroaniline (pNA) substrate specific for each enzyme was used as described previously (PCT Patent Application No. WO 00/09543) with some modifications to the serine protease assays. All enzymes were purchased from Sigma while the substrates were from Bachem.
Each assay included a 2 h enzyme-inhibitor pre-incubation at room temperature followed by addition of substrate and hydrolysis to ˜30% conversion as measured on a Spectramax Pro microplate reader. Compound concentrations varied from 100 to 0.4 μM depending on their potency.
The final conditions for each assay were the same as those described in WO 03/099274, page 623.
The percentage of inhibition was calculated using the formula: [1−((UVinh−UVblank)/(UVctl−UVblank))]×100
A non-linear curve fit was applied to the inhibition-concentration data, and the 50% effective concentration (IC50) was calculated by the use of Excel XLfit software.

T1 sequence (P27958 1027-1657, stated change not applied, one chain of several): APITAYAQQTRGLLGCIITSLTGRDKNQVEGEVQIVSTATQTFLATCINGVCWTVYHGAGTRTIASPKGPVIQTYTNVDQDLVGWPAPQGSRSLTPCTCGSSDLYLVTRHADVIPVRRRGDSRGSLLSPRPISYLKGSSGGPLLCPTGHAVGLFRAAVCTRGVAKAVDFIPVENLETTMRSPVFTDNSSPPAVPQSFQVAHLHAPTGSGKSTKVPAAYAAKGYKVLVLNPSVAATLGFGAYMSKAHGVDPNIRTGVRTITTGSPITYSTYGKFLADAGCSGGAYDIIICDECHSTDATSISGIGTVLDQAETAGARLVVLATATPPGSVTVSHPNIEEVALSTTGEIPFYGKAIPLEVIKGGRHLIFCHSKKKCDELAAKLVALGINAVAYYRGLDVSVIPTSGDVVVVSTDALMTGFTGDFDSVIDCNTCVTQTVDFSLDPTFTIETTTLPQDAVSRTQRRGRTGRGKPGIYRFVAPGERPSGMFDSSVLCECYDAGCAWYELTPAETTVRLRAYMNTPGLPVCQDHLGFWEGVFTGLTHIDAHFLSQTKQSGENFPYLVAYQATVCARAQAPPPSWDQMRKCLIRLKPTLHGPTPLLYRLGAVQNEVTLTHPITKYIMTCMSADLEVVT
T2 sequence (P27958 1027-1711 C1454S/C1711G, one chain of several): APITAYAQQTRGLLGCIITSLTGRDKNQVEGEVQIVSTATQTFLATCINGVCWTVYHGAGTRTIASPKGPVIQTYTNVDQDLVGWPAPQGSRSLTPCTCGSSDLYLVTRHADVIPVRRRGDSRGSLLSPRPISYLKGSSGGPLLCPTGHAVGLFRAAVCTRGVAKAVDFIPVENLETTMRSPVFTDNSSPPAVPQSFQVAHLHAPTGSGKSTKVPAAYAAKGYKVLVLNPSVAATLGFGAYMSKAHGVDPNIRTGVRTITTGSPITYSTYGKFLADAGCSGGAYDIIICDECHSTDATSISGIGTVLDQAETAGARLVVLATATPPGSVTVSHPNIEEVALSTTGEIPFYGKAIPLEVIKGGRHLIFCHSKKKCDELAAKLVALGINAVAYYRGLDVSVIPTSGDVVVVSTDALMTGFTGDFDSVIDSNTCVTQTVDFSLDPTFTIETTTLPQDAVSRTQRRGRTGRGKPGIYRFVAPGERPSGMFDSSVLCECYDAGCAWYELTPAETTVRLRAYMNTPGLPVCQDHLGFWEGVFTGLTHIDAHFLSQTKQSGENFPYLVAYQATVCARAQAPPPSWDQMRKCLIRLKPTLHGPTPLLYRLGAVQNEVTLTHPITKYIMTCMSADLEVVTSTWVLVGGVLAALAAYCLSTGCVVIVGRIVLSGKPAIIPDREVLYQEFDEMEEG

C=CC1CC1(NC(=O)[C@@H]1C[C@@H](NC(=O)c2cc(-c3ccccc3)nc3ccccc23)CN1C(=O)[C@@H](NC(=O)CC1CC1)C(C)(C)C)C(=O)NS(=O)(=O)C1CC1 (stereo partly shown) [Compound 9]
IC50 [1]: 47 nM
IC50 ([1]; read-out: IC 50 Range): < 150 nM
IC50 [2]: 41 nM
IC50 [3]: 65 µM
